Where two headings read alike, the source gives them in different places.
Columns and labels:
[1] = biological target: KRAS G13D (Homo sapiens (Human), UniProt P01116+P62937, G13D); assay: Ras-Raf (BRAF RBD) disruption / FRET / MOA assay, KRAS G13D; type: biochemical; details: read-out: IC50* KRAS G13D FRET data
Procedure, shortened: (§1)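 Compounds, top final concentration 30 μM in 10-point 3-fold series, incubated 3 hours at 25° C with nucleotide-loaded Ras, cyclophilin A and BRAF RBD.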

[2] = biological target: K-Ras G12C (Homo sapiens (Human), UniProt P01116+P62937, G12C); assay: Ras-Raf (BRAF RBD) disruption / FRET / MOA assay, KRAS G12C; type: biochemical; details: KRAS G12C; Ras-Raf disruption/FRET/MOA assay; read-out: IC50* KRAS G12C FRET data
K-Ras G12C, sequence (P01116-2 other isoform, or with tags, fused parts or gaps G12C): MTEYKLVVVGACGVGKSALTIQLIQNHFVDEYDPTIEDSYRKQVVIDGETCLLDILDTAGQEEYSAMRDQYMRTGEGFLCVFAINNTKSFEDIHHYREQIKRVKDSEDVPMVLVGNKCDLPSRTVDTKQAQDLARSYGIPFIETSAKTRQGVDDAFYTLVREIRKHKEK
K-Ras G12C, sequence (P62937 whole entry): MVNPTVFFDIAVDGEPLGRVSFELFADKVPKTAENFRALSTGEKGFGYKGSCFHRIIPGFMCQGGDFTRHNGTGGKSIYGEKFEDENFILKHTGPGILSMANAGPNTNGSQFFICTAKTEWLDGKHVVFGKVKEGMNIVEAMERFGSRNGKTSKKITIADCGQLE
Procedure, shortened: as §1

[3] = biological target: KRAS G12S (Homo sapiens (Human), UniProt P01116+P62937, G12S); assay: Ras-Raf (BRAF RBD) disruption / FRET / MOA assay, KRAS G12S; type: biochemical; details: Ras-Raf disruption/FRET/MOA assay; class symbols; read-out: KRAS G12S FRET data IC50
KRAS G12S, sequence (P01116-2 other isoform, or with tags, fused parts or gaps G12S): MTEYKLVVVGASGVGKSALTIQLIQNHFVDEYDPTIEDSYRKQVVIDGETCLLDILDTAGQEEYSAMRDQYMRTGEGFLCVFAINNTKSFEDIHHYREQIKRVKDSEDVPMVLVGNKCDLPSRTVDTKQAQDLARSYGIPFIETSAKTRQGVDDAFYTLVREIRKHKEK
KRAS G12S, sequence (P62937 whole entry): as the sequence (P62937 whole entry) above
Procedure, shortened: as §1

[4] = biological target: NRAS G12C (Homo sapiens (Human), UniProt P01111+P62937, G12C); assay: Ras-Raf (BRAF RBD) disruption / FRET / MOA assay, NRAS G12C; type: biochemical; details: read-out: IC50* NRAS G12C FRET data
NRAS G12C, sequence (P01111 whole entry G12C): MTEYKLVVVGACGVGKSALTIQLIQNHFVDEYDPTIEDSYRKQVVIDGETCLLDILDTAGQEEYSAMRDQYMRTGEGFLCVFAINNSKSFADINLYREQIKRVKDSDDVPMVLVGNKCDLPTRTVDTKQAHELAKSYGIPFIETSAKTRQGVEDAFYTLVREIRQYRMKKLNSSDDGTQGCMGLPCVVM
NRAS G12C, sequence (P62937 whole entry): as the sequence (P62937 whole entry) above
Procedure, shortened: as §1

[5] = test system: NCI-H358 (K-Ras G12C); assay: CellTiter-Glo cell viability assay, NCI-H358; type: cell-based, human; details: NCI-H358, 5-day treatment, class symbols, read-out: Additional H358 Cell Viability assay data (K-Ras G12C, IC50)
Procedure, shortened: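 Compounds were dispensed directly onto K-Ras mutant cells and incubated until day 5, then plates were equilibrated to room temperature for about 30 minutes before CellTiter-Glo luminescence. Signals were normalized as (sample/average DMSO)*100 and fitted by four-parameter logistic fit.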

[6] = biological target: K-Ras G13C (Homo sapiens (Human), UniProt P01116+P62937, G13C); assay: Ras-Raf (BRAF RBD) disruption / FRET / MOA assay, KRAS G13C; type: biochemical; details: KRAS G13C; Ras-Raf disruption/FRET/MOA assay; read-out: IC50* KRAS G13C FRET data
K-Ras G13C, sequence (P01116-2 other isoform, or with tags, fused parts or gaps G13C): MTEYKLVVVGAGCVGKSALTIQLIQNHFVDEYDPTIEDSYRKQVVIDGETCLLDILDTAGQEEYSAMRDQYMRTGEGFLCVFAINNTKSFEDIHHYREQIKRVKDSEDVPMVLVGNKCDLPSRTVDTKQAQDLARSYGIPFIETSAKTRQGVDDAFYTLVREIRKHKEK
K-Ras G13C, sequence (P62937 whole entry): as the sequence (P62937 whole entry) above
Procedure, shortened: as §1

[7] = biological target: KRAS G12D (Homo sapiens (Human), UniProt P01116+P62937, G12D); assay: Ras-Raf (BRAF RBD) disruption / FRET / MOA assay, KRAS G12D; type: biochemical; details: Ras-Raf disruption/FRET/MOA assay; class symbols; read-out: KRAS G12D FRET data IC50
KRAS G12D, sequence (P01116-2 other isoform, or with tags, fused parts or gaps G12D): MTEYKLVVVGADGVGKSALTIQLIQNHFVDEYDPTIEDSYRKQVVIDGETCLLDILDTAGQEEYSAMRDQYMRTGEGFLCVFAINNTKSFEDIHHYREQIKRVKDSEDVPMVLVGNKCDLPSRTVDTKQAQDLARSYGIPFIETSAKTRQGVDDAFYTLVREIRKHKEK
KRAS G12D, sequence (P62937 whole entry): as the sequence (P62937 whole entry) above
Procedure, shortened: as §1

[8] = biological target: KRAS G12V (Homo sapiens (Human), UniProt P01116+P62937, G12V); assay: Ras-Raf (BRAF RBD) disruption / FRET / MOA assay, KRAS G12V; type: biochemical; details: read-out: IC50* KRAS G12V FRET data
KRAS G12V, sequence (P01116-2 other isoform, or with tags, fused parts or gaps G12V): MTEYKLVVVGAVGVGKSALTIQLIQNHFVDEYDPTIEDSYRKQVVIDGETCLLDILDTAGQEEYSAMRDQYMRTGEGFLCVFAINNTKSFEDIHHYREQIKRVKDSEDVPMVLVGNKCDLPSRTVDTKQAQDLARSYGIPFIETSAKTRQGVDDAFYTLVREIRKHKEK
KRAS G12V, sequence (P62937 whole entry): as the sequence (P62937 whole entry) above
Procedure, shortened: as §1

[9] = biological target: KRAS WT (Homo sapiens (Human), UniProt P01116+P62937); assay: Ras-Raf (BRAF RBD) disruption / FRET / MOA assay, KRAS WT; type: biochemical; details: read-out: IC50* KRAS WT FRET data
KRAS WT, sequence (P01116-2 other isoform, or with tags, fused parts or gaps): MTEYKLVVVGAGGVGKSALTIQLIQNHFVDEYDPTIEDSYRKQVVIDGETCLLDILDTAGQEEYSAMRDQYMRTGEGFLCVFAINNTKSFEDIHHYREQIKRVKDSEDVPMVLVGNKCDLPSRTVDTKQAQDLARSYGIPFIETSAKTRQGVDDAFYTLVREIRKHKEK
KRAS WT, sequence (P62937 whole entry): as the sequence (P62937 whole entry) above
Procedure, shortened: as §1

KRAS G13D, sequence (P01116-2 other isoform, or with tags, fused parts or gaps G13D): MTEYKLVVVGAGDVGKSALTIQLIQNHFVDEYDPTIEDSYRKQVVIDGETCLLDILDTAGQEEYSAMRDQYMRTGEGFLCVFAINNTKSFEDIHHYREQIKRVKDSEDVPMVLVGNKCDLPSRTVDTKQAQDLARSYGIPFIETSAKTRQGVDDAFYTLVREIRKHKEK
KRAS G13D, sequence (P62937 whole entry): as the sequence (P62937 whole entry) above

Row | Compound | IC50 [1] [µM] | IC50 [2] [µM] | IC50 [3] [µM] | IC50 [4] [µM] | IC50 [5] [nM] | IC50 [6] [µM] | IC50 [7] [µM] | IC50 [8] [µM] | IC50 [9] [µM] | IC50 ([5]; Homo sapiens, NCI-H358, 120 h) [nM]
1 | CCn1c(-c2cccnc2[C@H](C)OC)c2c3cc(ccc31)-c1cccc(c1)C[C@H](NC(=O)[C@H](C(C)C)N(C)C(=O)[C@H]1CCN(C(=O)/C=C/CN3CC(OC)C3)C1)C(=O)N1CCC[C@H](N1)C(=O)OCC(C)(C)C2 (atropisomer, axis not shown) [Example A203] | > 10 | 1 to 10 | > 10 | 1 to 10 | > 1000 | > 10 | > 10 | > 10 | > 10 | 
2 | C=CC(=O)N1CC[C@H](C(=O)N(C)[C@H](C(=O)N[C@H]2Cc3ncc(n3C)-c3ccc4c(c3)c(c(-c3cccnc3[C@H](C)OC)n4CC)CC(C)(C)COC(=O)[C@@H]3CCCN(N3)C2=O)C(C)C)C1 (atropisomer, axis not shown) [Example A276] | > 10 | 1 to 10 | > 10 | 1 to 10 |  | > 10 | > 10 | > 10 | > 10 | > 1000
3 | C=CC(=O)N1CC[C@H](C(=O)N(C)[C@H](C(=O)N[C@H]2Cc3nc(cs3)-c3ccc4c(c3)c(c(-c3cccnc3[C@H](C)OC)n4CC)CC(C)(C)C/C=C/[C@@H]3CCCN(N3)C2=O)C(C)C)C1 (atropisomer, axis not shown) [Example A286] | > 10 | > 10 | > 10 | > 10 |  | > 10 | > 10 | > 10 | > 10 | > 1000
4 | C=CC(=O)N1CC[C@H](C(=O)N(C)[C@H](C(=O)N[C@H]2Cc3nc(cs3)-c3ccc4c(c3)c(c(-c3cccnc3[C@H](C)OC)n4CC)CC(C)(C)CCC[C@@H]3CCCN(N3)C2=O)C(C)C)C1 (atropisomer, axis not shown) [Example A288] | > 10 | > 10 | > 10 | > 10 |  | > 10 | > 10 | > 10 | > 10 | > 1000
5 | C/C=C(\C)S(=O)(=O)N1CC[C@H](C(=O)N(C)[C@H](C(=O)N[C@H]2Cc3cccc(c3)-c3ccc4c(c3)c(c(-c3cccnc3[C@H](C)OC)n4CC)CC(C)(C)COC(=O)[C@@H]3CCCN(N3)C2=O)C(C)C)C1 (atropisomer, axis not shown) [Example A308] | > 10 | > 10 | > 10 | > 10 |  | 1 to 10 | > 10 | > 10 | > 10 | 100 to 1000
6 | C=CC(=O)N1CC[C@H](C(=O)N(C2CC2)[C@H](C(=O)N[C@H]2Cc3cccc(c3)-c3ccc4c(c3)c(c(-c3cccnc3[C@H](C)OC)n4CC)CC(C)(C)COC(=O)[C@@H]3CCCN(N3)C2=O)C(C)C)C1 (atropisomer, axis not shown) [Example A398] | > 10 | 1 to 10 | > 10 | 1 to 10 |  | 1 to 10 | > 10 | 1 to 10 | 1 to 10 | 100 to 1000
7 | C=CC(=O)N1CC[C@H](C(=O)N(C)[C@H](C(=O)N[C@H]2Cc3cccc(c3)-c3ccc4c(c3)c(c(-c3cccnc3[C@H](C)OC)n4CC)CC(C)(C)COC(=O)[C@@H]3CCCN(N3)C2=O)C(C)C)[C@@H]1C (atropisomer, axis not shown) [Example A480] | > 10 | 1 to 10 | > 10 | 1 to 10 |  | 1 to 10 | > 10 | > 10 | > 10 | > 1000
8 | C=CC(=O)N1CC[C@H](C(=O)N(C)[C@H](C(=O)N[C@H]2Cn3cnc(n3)-c3ccc4c(c3)c(c(-c3cccnc3[C@H](C)OC)n4CC)CC(C)(C)COC(=O)[C@@H]3CCCN(N3)C2=O)C(C)C)C1 (atropisomer, axis not shown) [Example A506] | > 10 | 0.1 to 1 | 1 to 10 | 0.1 to 1 |  | 1 to 10 | > 10 | 1 to 10 | 1 to 10 | 100 to 1000
9 | C=CC(=O)N1CC[C@H](C(=O)N(C)[C@H](C(=O)N[C@H]2Cc3cccc(c3)-c3ccc4c(c3)c(c(-c3cc(C5CCN(C)CC5)cnc3[C@H](C)OC)n4CC)CC(C)(C)COC(=O)[C@@H]3CCCN(N3)C2=O)C(C)C)C1 (atropisomer, axis not shown) [Example A516] | > 10 | 1 to 10 | > 10 | 1 to 10 | > 1000 | 1 to 10 | > 10 | > 10 | > 10 | 
10 | C=CC(=O)N1CC(OCC(C(=O)N[C@H]2Cc3cc(cc(C(F)F)c3)-c3ccc4c(c3)c(c(-c3cccnc3[C@H](C)OC)n4CC(F)(F)F)CC(C)(C)COC(=O)[C@@H]3CCCN(N3)C2=O)C(C)C)C1 (mixture of isomers) [Example A428] | > 10 | > 10 | > 10 | > 10 |  | > 10 | > 10 | > 10 | > 10 | > 1000
11 | C=CC(=O)N1CC(OCC(C(=O)N[C@H]2Cc3cc(cc(C(F)F)c3)-c3ccc4c(c3)c(c(-c3cccnc3[C@H](C)OC)n4CC)CC(C)(C)COC(=O)[C@@H]3CCCN(N3)C2=O)C(C)C)C1 (mixture of isomers) [Example A450] | > 10 | > 10 | > 10 | > 10 |  | > 10 | > 10 | > 10 | > 10 | > 1000
12 | C=CC(=O)N1CC(OCC(C(=O)N[C@H]2Cc3cccc(c3)-c3ccc4c(c3)c(c(-c3cccnc3[C@H](C)OC)n4CC)CC(C)(C)COC(=O)[C@@H]3CCCN(N3)C2=O)C(C)C)C1 (mixture of isomers) [Example A484] | > 10 | 0.1 to 1 | > 10 | 1 to 10 |  | 1 to 10 | > 10 | > 10 | > 10 | 100 to 1000
13 | C=CC(=O)N1CCC(C(=O)N(C)[C@H](C(=O)N[C@H]2Cc3cc(O)cc(c3)-c3ccc4c(c3)c(c(-c3ccccc3CCOC)n4CC)CC(C)(C)c3coc(n3)[C@@H]3CCCN(N3)C2=O)C(C)C)C1 (single isomer, unassigned) [Example A231] | > 10 | > 10 | > 10 | > 10 |  | > 10 | > 10 | > 10 | > 10 | > 1000

From US11566007B2, “Ras inhibitors” (Revolution Medicines, Inc., priority 2019, dated 2023)
